According to US20130040882A1, “USE OF FIBROBLAST GROWTH FACTOR FRAGMENTS” (NOVARTIS AG, priority 2003, published 2013):

Test system: uterine gene expression
Assay: Gene expression profiling (HGU133A) in the uterus of ovariectomized monkeys treated with estradiol, tamoxifen or raloxifene
Type: in vivo, cynomolgus monkeys (Macaca fascicularis)
Conditions: uterus; OVX monkeys

## C#C[C@]1(O)CC[C@H]2[C@@H]3CCc4cc(O)ccc4[C@H]3CC[C@@]21C [EE]
  Fold change relative to OVX: ATPase, H+ transporting, lysosomal 38 kda, V0 subunit d isoform 1: 1.9 fold
  Fold change relative to OVX: ATPase, Na+/K+ transporting, beta 3 polypeptide: 2.2 fold
  Fold change relative to OVX: Biglycan: 1.9 fold
  Fold change relative to OVX: CDC28 protein kinase regulatory subunit 2: 3.8 fold
  Fold change relative to OVX: Cadherin 11, type 2, OB-cadherin (osteoblast): 3.4 fold
  Fold change relative to OVX: Calcium channel, voltage-dependent, beta 2 subunit: 0.6 fold
  Fold change relative to OVX: Catenin (cadherin-associated protein), alpha-like 1: 0.5 fold
  Fold change relative to OVX: Chitinase 3-like 1 (cartilage glycoprotein-39): 3.9 fold
  Fold change relative to OVX: Chloride intracellular channel 4: 1.7 fold
  Fold change relative to OVX: Chondroitin sulfate proteoglycan 2 (versican): 3.6 fold
  Fold change relative to OVX: Collagen, type I, alpha 1: 6.6 fold
  Fold change relative to OVX: Collagen, type IV, alpha 2: 3.3 fold
  Fold change relative to OVX: Collagen, type V, alpha 1: 4.0 fold
  Fold change relative to OVX: Collagen, type VI, alpha 3: 3.7 fold
  Fold change relative to OVX: Collagen, type VIII, alpha 2: 2.1 fold
  Fold change relative to OVX: Cyclin D1 (PRAD1: parathyroid adenomatosis 1): 2.4 fold
  Fold change relative to OVX: Cysteine-rich, angiogenic inducer, 61: 3.5 fold
  Fold change relative to OVX: Cytochrome c oxidase subunit via polypeptide 1: 1.5 fold
  Fold change relative to OVX: Cytochrome c oxidase subunit viia polypeptide 2 (liver): 1.8 fold
  Fold change relative to OVX: Dermatopontin: 1.9 fold
  Fold change relative to OVX: Dishevelled associated activator of morphogenesis 1: 3.1 fold
  Fold change relative to OVX: Fibroblast growth factor 2 (basic): 2.1 fold
  Fold change relative to OVX: Fibulin 1: 1.6 fold
  Fold change relative to OVX: Four and a half LIM domains 2: 3.0 fold
  Fold change relative to OVX: G1 to S phase transition 1: 1.6 fold
  Fold change relative to OVX: Growth associated protein 43: 2.0 fold
  Fold change relative to OVX: H2A histone family, member Y: 1.4 fold
  Fold change relative to OVX: Heparan sulfate proteoglycan 2 (perlecan): 3.5 fold
  Fold change relative to OVX: Histone H2A.F/Z variant: 1.4 fold
  Fold change relative to OVX: Insulin-like growth factor binding protein 2, 36 kda: 7.1 fold
  Fold change relative to OVX: Insulin-like growth factor binding protein 5: 5.2 fold
  Fold change relative to OVX: Integrin, beta 5: 1.7 fold
  Fold change relative to OVX: Intercrine-alpha, mrna sequence: 1.5 fold
  Fold change relative to OVX: LDL receptor adaptor protein: 0.6 fold
  Fold change relative to OVX: LIM and senescent cell antigen-like domains 1: 3.7 fold
  Fold change relative to OVX: Laminin, beta 1: 1.4 fold
  Fold change relative to OVX: Latent transforming growth factor beta binding protein 1: 3.6 fold
  Fold change relative to OVX: Matrix metalloproteinase 19: 6.3 fold
  Fold change relative to OVX: Mitogen-activated protein kinase kinase kinase kinase 4: 0.6 fold
  Fold change relative to OVX: Nidogen (enactin): 3.6 fold
  Fold change relative to OVX: Osteoglycin (osteoinductive factor, mimecan): 2.2 fold
  Fold change relative to OVX: Peroxiredoxin 1: 1.9 fold
  Fold change relative to OVX: Phosphatase and tensin homolog (mutated in multiple advanced cancers 1): 1.8 fold
  Fold change relative to OVX: Phospholipid transfer protein: 2.0 fold
  Fold change relative to OVX: Pituitary tumour-transforming 1 interacting protein: 1.8 fold
  Fold change relative to OVX: Procollagen C-endopeptidase enhancer: 3.2 fold
  Fold change relative to OVX: Procollagen-proline, 2-oxoglutarate 4-dioxygenase (proline 4-hydroxylase), alpha polypeptide II: 2.6 fold
  Fold change relative to OVX: Progesterone receptor: 9.7 fold
  Fold change relative to OVX: Protein tyrosine kinase 9: 2.1 fold
  Fold change relative to OVX: SET domain, bifurcated 1: 3.0 fold
  Fold change relative to OVX: SPARC-like 1 (mast9, hevin): 2.4 fold
  Fold change relative to OVX: Secreted frizzled-related protein 1: 7.1 fold
  Fold change relative to OVX: Secreted frizzled-related protein 4: 4.2 fold
  Fold change relative to OVX: Secreted protein, acidic, cysteine-rich (osteonectin): 2.9 fold
  Fold change relative to OVX: Serine (or cysteine) proteinase inhibitor, clade H (heat shock protein 47), member 1, (collagen binding protein 1): 3.3 fold
  Fold change relative to OVX: Solute carrier family 22 (organic cation transporter), member 1-like: 1.9 fold
  Fold change relative to OVX: Solute carrier family 25 (mitochondrial carrier; adenine nucleotide translocator), member 5: 2.5 fold
  Fold change relative to OVX: Stem cell growth factor; lymphocyte secreted C-type lectin: 2.2 fold
  Fold change relative to OVX: Tenascin C (hexabrachion): 1.2 fold
  Fold change relative to OVX: Testis Enhanced Gene Transcript (Bax Inhibitor 1): 1.8 fold
  Fold change relative to OVX: Thioredoxin interacting protein: 0.3 fold
  Fold change relative to OVX: Transforming growth factor, beta-induced, 68 kda: 1.7 fold
  Fold change relative to OVX: Ubiquinol-cytochrome c reductase, Rieske iron-sulfur polypeptide 1: 1.4 fold
  Fold change relative to OVX: Wingless-type MMTV integration site family, member 2B: 2.6 fold
  Fold change relative to OVX: Wingless-type MMTV integration site family, member 16: 1.1 fold
  Fold change relative to SHAM control: ATPase, H+ transporting, lysosomal 38 kda, V0 subunit d isoform 1: 1.6 fold
  Fold change relative to SHAM control: ATPase, Na+/K+ transporting, beta 3 polypeptide: 1.2 fold
  Fold change relative to SHAM control: Biglycan: 0.7 fold
  Fold change relative to SHAM control: CDC28 protein kinase regulatory subunit 2: 2.3 fold
  Fold change relative to SHAM control: Cadherin 11, type 2, OB-cadherin (osteoblast): 2.1 fold
  Fold change relative to SHAM control: Calcium channel, voltage-dependent, beta 2 subunit: 1.1 fold
  Fold change relative to SHAM control: Catenin (cadherin-associated protein), alpha-like 1: 1.0 fold
  Fold change relative to SHAM control: Chitinase 3-like 1 (cartilage glycoprotein-39): 2.8 fold
  Fold change relative to SHAM control: Chloride intracellular channel 4: 0.9 fold
  Fold change relative to SHAM control: Chondroitin sulfate proteoglycan 2 (versican): 2.6 fold
  Fold change relative to SHAM control: Collagen, type I, alpha 1: 2.4 fold
  Fold change relative to SHAM control: Collagen, type IV, alpha 2: 1.9 fold
  Fold change relative to SHAM control: Collagen, type V, alpha 1: 1.9 fold
  Fold change relative to SHAM control: Collagen, type VI, alpha 3: 2.1 fold
  Fold change relative to SHAM control: Collagen, type VIII, alpha 2: 1.2 fold
  Fold change relative to SHAM control: Cyclin D1 (PRAD1: parathyroid adenomatosis 1): 2.7 fold
  Fold change relative to SHAM control: Cysteine-rich, angiogenic inducer, 61: 2.0 fold
  Fold change relative to SHAM control: Cytochrome c oxidase subunit via polypeptide 1: 1.3 fold
  Fold change relative to SHAM control: Cytochrome c oxidase subunit viia polypeptide 2 (liver): 1.8 fold
  Fold change relative to SHAM control: Dermatopontin: 1.1 fold
  Fold change relative to SHAM control: Dishevelled associated activator of morphogenesis 1: 2.0 fold
  Fold change relative to SHAM control: Fibroblast growth factor 2 (basic): 1.1 fold
  Fold change relative to SHAM control: Fibulin 1: 0.9 fold
  Fold change relative to SHAM control: Four and a half LIM domains 2: 1.9 fold
  Fold change relative to SHAM control: G1 to S phase transition 1: 1.3 fold
  Fold change relative to SHAM control: Growth associated protein 43: 0.8 fold
  Fold change relative to SHAM control: H2A histone family, member Y: 1.2 fold
  Fold change relative to SHAM control: Heparan sulfate proteoglycan 2 (perlecan): 1.6 fold
  Fold change relative to SHAM control: Histone H2A.F/Z variant: 1.4 fold
